The values below come from US20120020915A1, “Compounds and Methods for Treating Cancer and Diseases of the Central Nervous System” (QUEENS UNIVERSITY AT KINGSTON, priority 2007, published 2012).

In one data set the target is T1, HO-2 (rat brain) (Rattus norvegicus, UniProt P23711).
T1 construct: brain microsomes were used as a source of HO-2; from tissue; host or cells: brain microsomal fraction of adult male Sprague-Dawley rats
T1 sequence (P23711 1-315): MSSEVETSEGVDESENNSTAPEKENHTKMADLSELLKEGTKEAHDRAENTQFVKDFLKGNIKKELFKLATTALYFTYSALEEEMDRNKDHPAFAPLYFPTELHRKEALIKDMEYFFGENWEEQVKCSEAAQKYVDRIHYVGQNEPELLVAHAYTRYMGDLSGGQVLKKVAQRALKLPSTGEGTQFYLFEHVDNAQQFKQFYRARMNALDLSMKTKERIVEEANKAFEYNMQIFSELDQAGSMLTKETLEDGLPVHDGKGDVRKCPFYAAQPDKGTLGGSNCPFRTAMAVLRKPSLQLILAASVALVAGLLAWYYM
Briefly: HO enzymatic activity, rat brain microsomal fraction (CO formation from methemalbumin). Format: biochemical. To be noted: IC50 HO-2 (rat brain)/μM), CO formation from methemalbumin, mean ± SD of replicate experiments.

For a further data set, the target named is T2, HO-1 (rat spleen) (Rattus norvegicus, UniProt P06762).
T2 construct: Spleen microsomes were used as a source of HO-1; from tissue; host or cells: spleen microsomal fraction of adult male Sprague-Dawley rats
T2 sequence (P06762 1-289): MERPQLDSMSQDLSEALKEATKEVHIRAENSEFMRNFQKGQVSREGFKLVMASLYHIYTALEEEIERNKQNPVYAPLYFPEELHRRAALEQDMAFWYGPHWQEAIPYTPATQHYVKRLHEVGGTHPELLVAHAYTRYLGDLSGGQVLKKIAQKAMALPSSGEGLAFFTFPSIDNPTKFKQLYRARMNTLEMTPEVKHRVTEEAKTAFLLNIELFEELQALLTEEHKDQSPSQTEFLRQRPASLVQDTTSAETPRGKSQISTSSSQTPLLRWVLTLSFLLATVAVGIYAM
Description: HO enzymatic activity, rat spleen microsomal fraction (CO formation from methemalbumin). Format: biochemical. The conditions noted are these: CO formation from methemalbumin, mean ± SD of replicate experiments.

Data set [1] concerns HCT-116 colorectal carcinoma. Description: Colorectal carcinoma model HCT-116 in SCID mice, tumor growth delay. Format: in vivo, Mouse (Mus musculus); male SCID. The conditions noted are these: dosage of 60 mg/kg. From the text: (§1) Control groups received the vehicle alone.
The test system of data set [2] is CD31-positive vessels in SKMEL-V+ tumors. Description: CD31 immunohistochemistry / microvessel density of SKMEL-V+ tumors. Format: in vivo, Mouse (Mus musculus), male SCID. The conditions noted are these: QC-56 particularly at 60 mg/kg. The method, then:
Cell cultures were maintained in 5% CO2/95% air at 37° C. SKMEL-V (human melanoma cells). SKMEL-V cells were derived from SKMEL-24 cells (ATCC) by overexpression of mouse VEGF. […] Tumors were either snap frozen in liquid nitrogen or fixed in 10% buffered formalin and embedded in paraffin. […] BD PharMingen, San Diego, Calif.). […] Sections were rehydrated in PBS and then blocked with 5% normal goat serum for 1 h. The sections were then incubated overnight at 4° C. with CD31 antibody diluted 1:25 in 3% BSA-PBS. […] Paraffin-embedded material was used for Harris' hematoxylin. Microvessel density was quantified using a method described by Weidner et al ([…], and Folkman […]. Med, 1991; 324:1-8). Briefly, randomly vascularized areas were selected (hot spots) under 40× field and 100× fields. Then a 400× field was used to count microvessels in each of these areas. Single endothelial cells or clusters of endothelial cells with or without lumen were considered to be individual vessels. […] All slides were examined blindly with no prior knowledge of the treatment status.

A further data set deals with cultured rat astroglia. The conditions noted are these: cited from earlier work; for mitochondrial iron accumulation in astroglia transfected with human ho-1 gene: transient transfection.
The format of data set [3] is in vivo. To be noted: QC-56 60 mg/kg ip, 4 cycles; chemotherapy drugs ip.
Excerpt: as §1

The test system of data set [4] is vascular smooth muscle cells (VSMC). To be noted: exposure of VSMC; cited from earlier work.
Data set [5] concerns B16-BL6 cells (mouse melanoma). Description: Metastatic B16-BL6 melanoma model, lung surface metastases. Format: in vivo. The conditions noted are these: vehicle control: 101. The method, then:
B16-BL6 cells (mouse melanoma). B16-BL6 metastatic variant was derived from B16-F10. This cell variant was obtained from Dr. Linda D. Williams, Dept. of Cancer Biology, MD Anderson Cancer Center, Texas, USA. […] Cells were maintained at 37° C. in a humidified atmosphere (5% CO2, 95% air).
as §1

Setting [6] is: read-out: IC50 HO-1 (rat spleen/μM).

Usually melting point stands for the temperature, or range, at which the solid turns liquid.

Read-outs that look alike come from different tables or passages of the source.

Turning to `Cl.OC(CCc1ccc(I)cc1)Cn1ccnc1` (racemic) [QC-74, (±)-1-(1H-Imidazol-1-yl)-4-(4-iodophenyl)-2-butanol hydrochloride], the melting point lay in the range of 196 to 197 °C. The IC50 on HO-2 (rat brain) was determined as 2 ± 1 µM.
In turn, `Cl.OC(CCc1ccccc1)Cn1ccnc1` (racemic) [QC-76, (±)-1-(1H-imidazol-1-yl)-4-phenyl-2-butanol hydrochloride] gave a melting point of 56 to 57 °C. The IC50 on HO-2 (rat brain) is 16 ± 8 µM. Further, the IC50 at HO-1 (rat spleen) (setting [6]) stood at 6 ± 1 µM.
Regarding `Cl.OC(CCc1ccc(Br)cc1)Cn1ccnc1` (racemic) [QC-79, (±)-4-(4-Bromophenyl)-1-(1H-imidazol-1-yl)-2-butanol hydrochloride], the melting point lay within 174 to 175 °C. For the same compound, at HO-2 (rat brain), the IC50 is 2.6 ± 0.5 µM. Further, at HO-1 (rat spleen) (setting [6]), the IC50 was determined as 0.1 ± 0.1 µM.
Compound `COc1ccc(OCC2CO[C@@](CCc3ccc(Cl)cc3)(Cn3ccnc3)O2)cc1.Cl` (stereo in doubt) [QC-132, (2R,4S)-1-[2-[2-(4-Chlorophenyl)ethyl]-4-(4-methoxyphenoxymethyl)-[1,3]dioxolan-2-ylmethyl]-1H-imidazole hydrochloride] registered a melting point of 128 to 129 °C.
Consider `O=c1[nH]cc(F)c(=O)[nH]1` [5-FU, Fluorouracil, reference compound], for which the mortality entry in data set [1] was “induced mortality”.
In the case of `CN(C)/N=N/c1[nH]cnc1C(N)=O` [Dacarbazine, reference compound], the “vessel count / tumor vascularization (CD31)” value in [2] is on record as “minor effect”.
As to `Cl.Ic1ccc(CCC2(Cn3ccnc3)OCCO2)cc1` [QC-78, 1-((2-(2-(4-Iodophenyl)ethyl)-1,3-dioxolan-2-yl)methyl)-1H-imidazole hydrochloride], the melting point is 241 to 243 °C (dec.). For the same compound, the IC50 against HO-1 (rat spleen) (IC50 HO-1 (rat spleen/μM)) turned out to be 4 ± 1 µM.
For `Cl.O=C(Cn1ccnc1)C12CC3CC(CC(C3)C1)C2` [QC-82, 1-(adamantan-1-yl)-2-imidazol-1-yl-ethanone hydrochloride], the melting point fell in the range of 261 to 262 °C. This compound also showed an IC50 on HO-2 (rat brain) greater than 100 µM. Besides, the IC50 at HO-1 (rat spleen) (setting [6]) stood at 3 ± 1 µM.
Consider `Cl.Clc1ccc(CCCCn2ccnc2)cc1` [QC-105, 1-[4-(4-chlorophenyl)butyl]-1H-imidazole hydrochloride], for which the melting point was 121 to 122 °C. The IC50 on HO-1 (rat spleen) (setting [6]) came to 0.5 ± 0.3 µM.
`Cl.Clc1ccc(CC[C@@]2(Cn3ccnc3)OC[C@@H](CSc3ccc4ccccc4c3)O2)cc1` [QC-121, (2R,4S)-1-[2-[2-(4-Chlorophenyl)ethyl]-4-(naphthalen-2-ylsulfanylmethyl)-[1,3]dioxolan-2-ylmethyl]-1H-imidazole hydrochloride]: the melting point is 156 to 157 °C.
On the same count and under the same terms, next, `Cl.Clc1ccc(CC[C@@]2(Cn3ccnc3)OC[C@@H](COc3ccc(-c4ccccc4)cc3)O2)cc1` [QC-129]: 162 to 163 °C.
With `CCC1=C(C)c2cc3[n-]c(cc4[n-]c(cc5nc(cc1n2)C(C)=C5CC)c(C)c4CCC(=O)O)c(CCC(=O)O)c3C.[Cl-].[Cl-].[Sn+4]` [SnMP], the “mitochondrial iron accumulation in astroglia transfected with human ho-1 gene” value with cultured rat astroglia is listed as “abolished the pathological accumulation of mitochondrial ^55Fe”.
As to `CC(=O)O[C@H]1C(=O)[C@@]2(C)[C@H]([C@H](OC(=O)c3ccccc3)[C@]3(O)C[C@H](OC(=O)[C@H](O)[C@@H](NC(=O)c4ccccc4)c4ccccc4)C(C)=C1C3(C)C)[C@]1(OC(C)=O)CO[C@@H]1C[C@@H]2O` [Taxol™, paclitaxel, reference compound], the “toxicity in the combination study” value in [3] is given as “induced some loss of body weights/mortality”. Moreover, in [4], the “HO-1 expression and activity” value is “dose and time dependent increase in HO-1 expression and activity”.
With `N.N.[Cl][Pt][Cl]` [cisplatin, cis-diaminedichloroplatinum(II), reference compound], the “macroscopic nodules in the lungs (average)” value in data set [5] was found to be 60 nodules.
For `C[C@@H]1C[C@H]2[C@@H]3CCC4=CC(=O)C=C[C@]4(C)[C@@]3(F)[C@@H](O)C[C@]2(C)[C@@]1(O)C(=O)CO` [dexamethasone], the “mitochondrial iron sequestration in astrocytes exposed to β-amyloid, TNFα or IL-1β” value in the data set on cultured rat astroglia (dexamethasone 50 μg/mL) is “significantly attenuated mitochondrial iron sequestration”. Further, the “mitochondrial iron accumulation in astroglia transfected with human ho-1 gene” value with cultured rat astroglia was “abolished the pathological accumulation of mitochondrial ^55Fe”.
